Measured values as given in patent US9611267B2, “Substituted tricyclic compounds as FGFR inhibitors” (Incyte Corporation, priority 2012, dated 2017).
Where two headings read alike, the source gives them in different places.

Experiments:
Format in all cases: biochemical
FGFR2 = FGFR2 (Homo sapiens (Human), UniProt P21802); assay: FGFR enzymatic assay (FRET peptide phosphorylation), FGFR2; conditions: FGFR2 enzyme 0.01 nM, ATP 100 μM
Experimental: (§1) The inhibitor potency of the exemplified compounds was measured in an enzyme assay that measures peptide phosphorylation using FRET measurements to detect product formation. Inhibitors were serially diluted in DMSO and a volume of 0.5 μL was transferred to the wells of a 384-well plate. For FGFR3, a 10 μL volume of FGFR3 enzyme (Millipore) diluted in assay buffer (50 mM HEPES, 10 mM MgCl2, 1 mM EGTA, 0.01% Tween-20, 5 mM DTT, pH 7.5) was added to the plate and pre-incubated for 5-10 minutes. Appropriate controls (enzyme blank and enzyme with no inhibitor) were included on the plate. […] The plate was incubated at 25° C. for 1 hr. […] The plate was allowed to equilibrate for ˜1 hr before scanning the wells on a PheraStar plate reader (BMG Labtech).
(§2) The enzymes were purchased from Millipore or Invitrogen.
(§3) GraphPad prism3 was used to analyze the data. The IC50 values were derived by fitting the data to the equation for a sigmoidal dose-response with a variable slope. Y=Bottom+(Top−Bottom)/(1+10^((LogIC50−X)*HillSlope)) where X is the logarithm of concentration and Y is the response.

FGFR3 = FGFR3 (Homo sapiens (Human), UniProt P22607); assay: FGFR enzymatic assay (FRET peptide phosphorylation), FGFR3; conditions: FGFR3 enzyme (Millipore), ATP 140 μM
Experimental: as §1, §3

FGFR1 = FGFR1 (Homo sapiens (Human), UniProt P11362); assay: FGFR enzymatic assay (FRET peptide phosphorylation), FGFR1
Experimental: as §1, §2, §3

[1] = FGFR1 enzyme 0.02 nM, ATP 210 μM

Chain of FGFR3 (P22607 23-806): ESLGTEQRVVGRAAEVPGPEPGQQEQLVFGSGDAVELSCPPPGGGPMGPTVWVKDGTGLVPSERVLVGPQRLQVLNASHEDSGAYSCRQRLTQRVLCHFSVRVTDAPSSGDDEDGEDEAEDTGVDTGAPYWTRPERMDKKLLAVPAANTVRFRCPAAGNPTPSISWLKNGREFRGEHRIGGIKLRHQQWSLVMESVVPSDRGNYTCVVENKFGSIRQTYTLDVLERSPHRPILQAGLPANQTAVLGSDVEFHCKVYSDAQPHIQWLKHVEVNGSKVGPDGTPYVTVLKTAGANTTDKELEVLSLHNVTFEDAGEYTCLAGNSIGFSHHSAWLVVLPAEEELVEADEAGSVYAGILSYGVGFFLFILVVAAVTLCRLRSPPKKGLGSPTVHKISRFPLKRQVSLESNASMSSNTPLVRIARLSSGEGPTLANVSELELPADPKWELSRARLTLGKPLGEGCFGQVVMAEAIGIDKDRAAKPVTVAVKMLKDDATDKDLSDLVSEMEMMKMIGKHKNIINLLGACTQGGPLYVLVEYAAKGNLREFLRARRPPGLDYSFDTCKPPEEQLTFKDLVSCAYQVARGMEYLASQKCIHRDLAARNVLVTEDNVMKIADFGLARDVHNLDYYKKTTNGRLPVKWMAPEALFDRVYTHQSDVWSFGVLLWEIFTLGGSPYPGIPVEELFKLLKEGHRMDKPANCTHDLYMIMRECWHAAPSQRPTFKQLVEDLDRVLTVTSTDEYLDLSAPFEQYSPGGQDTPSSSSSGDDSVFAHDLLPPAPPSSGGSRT
Chain of FGFR1 (P11362 22-822): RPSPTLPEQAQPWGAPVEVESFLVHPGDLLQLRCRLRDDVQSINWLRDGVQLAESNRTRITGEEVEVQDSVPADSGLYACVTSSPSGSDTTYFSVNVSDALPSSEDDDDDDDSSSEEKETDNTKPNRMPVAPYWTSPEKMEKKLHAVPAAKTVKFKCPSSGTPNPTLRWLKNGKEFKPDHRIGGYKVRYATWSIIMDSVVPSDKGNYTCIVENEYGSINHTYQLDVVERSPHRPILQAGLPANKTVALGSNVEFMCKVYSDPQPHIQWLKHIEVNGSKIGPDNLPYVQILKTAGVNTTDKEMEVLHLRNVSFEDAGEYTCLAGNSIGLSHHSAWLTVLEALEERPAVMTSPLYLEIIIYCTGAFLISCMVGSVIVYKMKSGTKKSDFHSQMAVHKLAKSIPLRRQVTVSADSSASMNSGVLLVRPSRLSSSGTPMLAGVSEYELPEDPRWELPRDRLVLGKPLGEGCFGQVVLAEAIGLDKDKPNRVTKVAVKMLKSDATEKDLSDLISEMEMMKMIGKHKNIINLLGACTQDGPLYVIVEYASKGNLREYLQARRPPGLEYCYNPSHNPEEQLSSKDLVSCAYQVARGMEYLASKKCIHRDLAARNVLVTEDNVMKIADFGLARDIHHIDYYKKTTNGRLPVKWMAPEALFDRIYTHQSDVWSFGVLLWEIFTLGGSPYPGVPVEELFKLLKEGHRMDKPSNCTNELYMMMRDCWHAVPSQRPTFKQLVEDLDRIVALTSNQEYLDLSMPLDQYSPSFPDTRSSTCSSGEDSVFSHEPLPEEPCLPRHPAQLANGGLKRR
Chain of FGFR2 (P21802 22-821): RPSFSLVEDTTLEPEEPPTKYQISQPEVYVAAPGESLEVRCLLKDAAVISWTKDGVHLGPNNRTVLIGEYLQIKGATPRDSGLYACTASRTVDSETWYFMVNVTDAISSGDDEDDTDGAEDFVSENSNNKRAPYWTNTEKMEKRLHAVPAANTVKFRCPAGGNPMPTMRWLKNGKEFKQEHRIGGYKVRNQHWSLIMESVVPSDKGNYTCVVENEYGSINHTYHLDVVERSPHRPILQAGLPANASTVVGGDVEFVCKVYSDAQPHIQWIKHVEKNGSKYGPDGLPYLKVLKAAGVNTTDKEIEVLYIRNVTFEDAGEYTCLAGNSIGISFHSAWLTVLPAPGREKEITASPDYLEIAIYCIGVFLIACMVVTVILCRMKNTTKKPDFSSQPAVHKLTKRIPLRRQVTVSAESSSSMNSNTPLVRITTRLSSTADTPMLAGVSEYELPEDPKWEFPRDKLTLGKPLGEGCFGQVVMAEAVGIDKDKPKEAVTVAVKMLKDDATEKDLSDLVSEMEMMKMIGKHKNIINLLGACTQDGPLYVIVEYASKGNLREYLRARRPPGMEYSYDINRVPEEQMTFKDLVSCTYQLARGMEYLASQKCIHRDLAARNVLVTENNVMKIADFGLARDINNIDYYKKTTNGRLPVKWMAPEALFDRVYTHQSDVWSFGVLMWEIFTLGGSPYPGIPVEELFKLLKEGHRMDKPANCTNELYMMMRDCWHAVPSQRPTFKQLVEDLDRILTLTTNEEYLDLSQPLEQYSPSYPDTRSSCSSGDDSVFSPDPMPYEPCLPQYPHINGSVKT

Row | IC50 (FGFR2) | IC50 (FGFR3) | IC50 (FGFR1; [1]) | SMILES | IC50 (FGFR1)
1 | < 100 nM | < 100 nM | < 100 nM | COc1cc(OC)c(Cl)c(N2Cc3cnc4c(c3N(C3CCC3)C2=O)CC(=O)N4)c1F [Example 106, 3-(2-chloro-6-fluoro-3,5-dimethoxyphenyl)-1-cyclobutyl-3,4,7,9-tetrahydro-1H-pyrrolo[3′,2′:5,6]pyrido[4,3-d]pyrimidine-2,8-dione] | –
2 | < 100 nM | < 100 nM | < 100 nM | CCN1C(=O)N(c2c(F)c(OC)cc(OC)c2F)Cc2cnc3[nH]c(Cn4ccccc4=O)cc3c21 [Example 219, 3-(2,6-difluoro-3,5-dimethoxyphenyl)-1-ethyl-8-[(2-oxopyridin-1(2H)-yl)methyl]-1,3,4,7-tetrahydro-2H-pyrrolo[3′,2′:5,6]pyrido[4,3-d]pyrimidin-2-one] | –
3 | < 100 nM | < 100 nM | < 100 nM | COc1cc(OC)c(F)c(N2Cc3cnc4[nH]c(CN5CCN(C)CC5)cc4c3N(C)C2=O)c1F [Example 129, 3-(2,6-difluoro-3,5-dimethoxyphenyl)-1-methyl-8-[(4-methylpiperazin-1-yl)methyl]-1,3,4,7-tetrahydro-2H-pyrrolo[3′,2′:5,6]pyrido[4,3-d]pyrimidin-2-one] | –
4 | < 100 nM | < 100 nM | < 100 nM | COc1cc(OC)c(F)c(N2Cc3cnc4[nH]ncc4c3N(CCc3cccnc3)C2=O)c1F [Example 170, 3-(2,6-Difluoro-3,5-dimethoxyphenyl)-1-(2-pyridin-3-ylethyl)-1,3,4,7-tetrahydro-2H-pyrazolo[4′,3′:5,6]pyrido[4,3-d]pyrimidin-2-one] | –
5 | < 100 nM | < 100 nM | < 100 nM | COc1cc(OC)c(F)c(N2Cc3cnc4c(c3N(c3ccc(Cl)cc3F)C2=O)CC(=O)N4)c1F [Example 68, 1-(4-chloro-2-fluorophenyl)-3-(2,6-difluoro-3,5-dimethoxyphenyl)-3,4,7,9-tetrahydro-1H-pyrrolo[3′,2′:5,6]pyrido[4,3-d]pyrimidine-2,8-dione] | –
6 | < 100 nM | < 100 nM | < 100 nM | COc1cc(OC)c(F)c(N2Cc3cnc4[nH]ccc4c3NC2=O)c1F [Example 103, 3-(2,6-difluoro-3,5-dimethoxyphenyl)-1,3,4,7-tetrahydro-2H-pyrrolo[3′,2′:5,6]pyrido[4,3-d]pyrimidin-2-one] | –
7 | < 100 nM | < 100 nM | < 100 nM | COc1cc(OC)c(F)c(N2Cc3cnc4[nH]nc(-c5cnn(C)c5)c4c3N(C)C2=O)c1F [Example 215, 3-(2,6-difluoro-3,5-dimethoxyphenyl)-1-methyl-9-(1-methyl-1H-pyrazol-4-yl)-1,3,4,7-tetrahydro-2H-pyrazolo[4′,3′:5,6]pyrido[4,3-d]pyrimidin-2-one] | –
8 | < 100 nM | < 100 nM | < 100 nM | CCN1CCN(C(=O)c2cc3c4c(cnc3[nH]2)CN(c2c(F)c(OC)cc(OC)c2F)C(=O)N4C)CC1 [Example 119, 3-(2,6-difluoro-3,5-dimethoxyphenyl)-8-[(4-ethylpiperazin-1-yl)carbonyl]-1-methyl-1,3,4,7-tetrahydro-2H-pyrrolo[3′,2′:5,6]pyrido[4,3-d]pyrimidin-2-one] | –
9 | < 100 nM | < 100 nM | < 100 nM | COc1cc(OC)c(F)c(N2Cc3cnc4[nH]c(CN[C@H]5CCOC5)cc4c3N(C)C2=O)c1F [Example 135, 3-(2,6-difluoro-3,5-dimethoxyphenyl)-1-methyl-8-{[(3S)-tetrahydrofuran-3-ylamino]methyl}-1,3,4,7-tetrahydro-2Hpyrrolo[3′,2′:5,6]pyrido[4,3-d]pyrimidin-2-one] | –
10 | < 100 nM | < 100 nM | < 100 nM | CCN1CCN(Cc2cc3c4c(cnc3[nH]2)CN(c2c(F)c(OC)cc(OC)c2F)C(=O)C4(C)C)CC1 [Example 154, 7-(2,6-difluoro-3,5-dimethoxyphenyl)-2-[(4-ethylpiperazin-1-yl)methyl]-9,9-dimethyl-3,6,7,9-tetrahydro-8H-pyrrolo[2,3-c]-2,7-naphthyridin-8-one] | –

The remaining lines, values behind:

Row | SMILES | IC50 (FGFR2) | IC50 (FGFR3) | IC50 (FGFR1; [1]) | IC50 (FGFR1)
11 | COc1cc(OC)c(F)c(N2Cc3cnc4[nH]ncc4c3N(C)C2=O)c1F [Example 51, 3-(2,6-Difluoro-3,5-dimethoxyphenyl)-1-methyl-1,3,4,7-tetrahydro-2H-pyrazolo[4′,3′:5,6]pyrido[4,3-d]pyrimidin-2-one] | < 100 nM | < 100 nM | < 100 nM | –
12 | COc1cc(OC)cc(N2Cc3cnc4[nH]c(C(=O)N5CCN(C)CC5)cc4c3N(C)C2=O)c1 [Example 22, 3-(3,5-Dimethoxyphenyl)-1-methyl-8-[(4-methylpiperazin-1-yl)carbonyl]-1,3,4,7-tetrahydro-2H-pyrrolo[3′,2′:5,6]pyrido[4,3-d]pyrimidin-2-one] | < 100 nM | < 100 nM | < 100 nM | –
13 | COc1cc(OC)c(F)c(N2Cc3cnc4ccsc4c3N(C)C2=O)c1F [Example 38, 3-(2,6-Difluoro-3,5-dimethoxyphenyl)-1-methyl-3,4-dihydrothieno[2′,3′:5,6]pyrido[4,3-d]pyrimidin-2(1H)-one] | < 100 nM | < 100 nM | < 100 nM | –
14 | COc1cc(OC)c(F)c(N2Cc3cnc4[nH]ncc4c3OC2=O)c1F [Example 62, 3-(2,6-difluoro-3,5-dimethoxyphenyl)-4,7-dihydropyrazolo[4′,3′:5,6]pyrido[3,4-e][1,3]oxazin-2(3H)-one] | 100 to 500 nM | < 100 nM | 100 to 500 nM | –
15 | COc1cc(OC)c(F)c(N2Cc3cnc4c(c3N(C3CC3)C2=O)CC(=O)N4)c1F [Example 48, 1-Cyclopropyl-3-(2,6-difluoro-3,5-dimethoxyphenyl)-3,4,7,9-tetrahydro-1H-pyrrolo[3′,2′:5,6]pyrido[4,3-d]pyrimidine-2,8-dione] | < 100 nM | < 100 nM | < 100 nM | –
16 | COc1cc(OC)c(Cl)c(N2Cc3cnc4[nH]c(-c5cnn(CCO)c5)cc4c3N(C)C2=O)c1 [Example 14, 3-(2-Chloro-3,5-dimethoxyphenyl)-8-[1-(2-hydroxyethyl)-1H-pyrazol-4-yl]-1-methyl-1,3,4,7-tetrahydro-2H-pyrrolo[3′,2′:5,6]pyrido[4,3-d]pyrimidin-2-one] | < 100 nM | < 100 nM | < 100 nM | –
17 | COc1cc(OC)c(F)c(N2Cc3cnc4[nH]nc(CC#N)c4c3N(C)C2=O)c1F [Example 54, [3-(2,6-Difluoro-3,5-dimethoxyphenyl)-1-methyl-2-oxo-2,3,4,7-tetrahydro-1H-pyrazolo[4′,3′:5,6]pyrido[4,3-d]pyrimidin-9-yl]acetonitrile] | < 100 nM | < 100 nM | < 100 nM | –
18 | COc1cc(OC)cc(N2Cc3cnc4[nH]c(C5=CCN(C)CC5)cc4c3N(C)C2=O)c1 [Example 17, 3-(3,5-Dimethoxyphenyl)-1-methyl-8-(1-methyl-1,2,3,6-tetrahydropyridin-4-yl)-1,3,4,7-tetrahydro-2H-pyrrolo[3′,2′:5,6]pyrido[4,3-d]pyrimidin-2-one] | < 100 nM | < 100 nM | – | < 100 nM
19 | COc1cc(OC)c(F)c(N2Cc3cnc4[nH]c(C(=O)N5CC(O)C5)cc4c3N(C)C2=O)c1 [Example 28, 3-(2-Fluoro-3,5-dimethoxyphenyl)-8-[(3-hydroxyazetidin-1-yl)carbonyl]-1-methyl-1,3,4,7-tetrahydro-2H-pyrrolo[3′,2′:5,6]pyrido[4,3-d]pyrimidin-2-one] | < 100 nM | < 100 nM | < 100 nM | –
